Tested on: SOS1-KRAS (Homo sapiens), Q07889+P01116 [G12C]
Assay: Inhibition of his tagged SOS1/GST-tagged KRAS G12C mutant (unknown origin) protein-protein interaction at 25 ug/ml incubated for 2 hrs by HTRF assay relative to control
Format: protein-complex assay
Settings: dose 25.0 µg/ml

Row | inhibition | SMILES
1 | 6.3% | CC(C)OCCCNC1CCN(c2ncc(NC(=O)c3ccccc3)cc2C(=O)O)CC1
2 | 2.1% | CC(C)CCN1CCCN(c2nc(Cc3ccccc3)nc3c2ncn3-c2ccccc2)CC1

Reference: ChEMBL document CHEMBL5385978, “Discovery of novel SOS1 inhibitors using machine learning” (RSC Med Chem, 2024)
